Source: the NIST ThermoML archive (doi:10.1021/acs.jced.6b00455)

Assay: mn = molality of the nth substance listed, in mol/kg
Settings: 101 kPa, Liquid, Alternating current cell with electrodes

C[N+](C)(C)CCO.O=C([O-])C(F)(F)C(F)(F)C(F)(F)C(F)(F)C(F)(F)F [(2-hydroxyethyl)trimethylammonium perfluorohexanoate] + O
Settings | electrical conductivity [S/m]
293.15 K, m1 = 0.000375 | 0.0022
293.15 K, m1 = 0.000696 | 0.0041
293.15 K, m1 = 0.001138 | 0.0071
293.15 K, m1 = 0.001477 | 0.0092
293.15 K, m1 = 0.001847 | 0.0114
293.15 K, m1 = 0.002373 | 0.0146
293.15 K, m1 = 0.00271 | 0.0166
293.15 K, m1 = 0.003146 | 0.0191
293.15 K, m1 = 0.003565 | 0.0215
293.15 K, m1 = 0.003898 | 0.0234
293.15 K, m1 = 0.004204 | 0.0251
293.15 K, m1 = 0.004601 | 0.0273
293.15 K, m1 = 0.00507 | 0.03
293.15 K, m1 = 0.00539 | 0.0318
293.15 K, m1 = 0.005815 | 0.034
293.15 K, m1 = 0.006239 | 0.0364
293.15 K, m1 = 0.00662 | 0.0384
293.15 K, m1 = 0.007072 | 0.0408
293.15 K, m1 = 0.007377 | 0.0425
293.15 K, m1 = 0.007726 | 0.0443
293.15 K, m1 = 0.008233 | 0.047
293.15 K, m1 = 0.008702 | 0.0493
293.15 K, m1 = 0.009174 | 0.0517
293.15 K, m1 = 0.009518 | 0.0535
293.15 K, m1 = 0.009916 | 0.0557
293.15 K, m1 = 0.01043 | 0.0585
293.15 K, m1 = 0.01075 | 0.0607
293.15 K, m1 = 0.01135 | 0.0637
293.15 K, m1 = 0.01181 | 0.0666
293.15 K, m1 = 0.01223 | 0.0687
298.15 K, m1 = 0.00055 | 0.0043
298.15 K, m1 = 0.001005 | 0.0076
298.15 K, m1 = 0.001703 | 0.0126
298.15 K, m1 = 0.002219 | 0.0163
298.15 K, m1 = 0.002829 | 0.0204
298.15 K, m1 = 0.003309 | 0.0241
298.15 K, m1 = 0.003767 | 0.0269
298.15 K, m1 = 0.00423 | 0.0305
298.15 K, m1 = 0.004871 | 0.0338
298.15 K, m1 = 0.005471 | 0.0376
298.15 K, m1 = 0.005971 | 0.0408
298.15 K, m1 = 0.006435 | 0.0436
298.15 K, m1 = 0.007097 | 0.0477
298.15 K, m1 = 0.007791 | 0.0519
298.15 K, m1 = 0.008432 | 0.0557
298.15 K, m1 = 0.008992 | 0.0589
298.15 K, m1 = 0.009929 | 0.0652
298.15 K, m1 = 0.01068 | 0.0683
298.15 K, m1 = 0.0118 | 0.0747
298.15 K, m1 = 0.01243 | 0.0781
298.15 K, m1 = 0.01316 | 0.0821
298.15 K, m1 = 0.01446 | 0.0892
303.15 K, m1 = 0.000466 | 0.0041
303.15 K, m1 = 0.000808 | 0.0072
303.15 K, m1 = 0.001191 | 0.0104
303.15 K, m1 = 0.001576 | 0.0137
303.15 K, m1 = 0.002245 | 0.0181
303.15 K, m1 = 0.002642 | 0.0212
303.15 K, m1 = 0.00302 | 0.0242
303.15 K, m1 = 0.003455 | 0.0274
303.15 K, m1 = 0.003946 | 0.0311
303.15 K, m1 = 0.004412 | 0.0342
303.15 K, m1 = 0.004852 | 0.0375
303.15 K, m1 = 0.00528 | 0.0407
303.15 K, m1 = 0.005774 | 0.0442
303.15 K, m1 = 0.006137 | 0.0465
303.15 K, m1 = 0.006412 | 0.0486
303.15 K, m1 = 0.006786 | 0.0514
303.15 K, m1 = 0.00737 | 0.0557
303.15 K, m1 = 0.007781 | 0.0587
303.15 K, m1 = 0.008049 | 0.0605
303.15 K, m1 = 0.008511 | 0.0638
303.15 K, m1 = 0.008888 | 0.0663
303.15 K, m1 = 0.009262 | 0.0691
303.15 K, m1 = 0.009766 | 0.0727
303.15 K, m1 = 0.01022 | 0.0763
308.15 K, m1 = 0.00032 | 0.0028
308.15 K, m1 = 0.000664 | 0.006
308.15 K, m1 = 0.000979 | 0.0086
308.15 K, m1 = 0.001217 | 0.0105
308.15 K, m1 = 0.001449 | 0.0125
308.15 K, m1 = 0.001666 | 0.0142
308.15 K, m1 = 0.002016 | 0.017
308.15 K, m1 = 0.00224 | 0.0188
308.15 K, m1 = 0.002547 | 0.0213
308.15 K, m1 = 0.002821 | 0.0235
308.15 K, m1 = 0.003227 | 0.0266
308.15 K, m1 = 0.003473 | 0.0285
308.15 K, m1 = 0.003909 | 0.0318
308.15 K, m1 = 0.004306 | 0.0348
308.15 K, m1 = 0.004503 | 0.0365
308.15 K, m1 = 0.004751 | 0.0383
308.15 K, m1 = 0.005079 | 0.0408
308.15 K, m1 = 0.005473 | 0.0437
308.15 K, m1 = 0.005677 | 0.0452
308.15 K, m1 = 0.005898 | 0.0468
308.15 K, m1 = 0.006135 | 0.0484
308.15 K, m1 = 0.006462 | 0.0505
308.15 K, m1 = 0.006775 | 0.0522
308.15 K, m1 = 0.006992 | 0.0537
308.15 K, m1 = 0.007243 | 0.0556
308.15 K, m1 = 0.00746 | 0.0572
308.15 K, m1 = 0.007893 | 0.0603
308.15 K, m1 = 0.008273 | 0.063
308.15 K, m1 = 0.008535 | 0.0647
308.15 K, m1 = 0.008941 | 0.0676
308.15 K, m1 = 0.009261 | 0.0697
308.15 K, m1 = 0.009516 | 0.0711
308.15 K, m1 = 0.009886 | 0.0734
308.15 K, m1 = 0.01025 | 0.076
313.15 K, m1 = 0.00043 | 0.0042
313.15 K, m1 = 0.000832 | 0.008
313.15 K, m1 = 0.001262 | 0.012
313.15 K, m1 = 0.001627 | 0.0157
313.15 K, m1 = 0.002033 | 0.0192
313.15 K, m1 = 0.00239 | 0.0224
313.15 K, m1 = 0.002657 | 0.0247
313.15 K, m1 = 0.002904 | 0.0268
313.15 K, m1 = 0.003178 | 0.0292
313.15 K, m1 = 0.003443 | 0.0314
313.15 K, m1 = 0.003771 | 0.0349
313.15 K, m1 = 0.004146 | 0.038
313.15 K, m1 = 0.004519 | 0.0412
313.15 K, m1 = 0.004784 | 0.0433
313.15 K, m1 = 0.005179 | 0.0467
313.15 K, m1 = 0.005436 | 0.0487
313.15 K, m1 = 0.005698 | 0.051
313.15 K, m1 = 0.006109 | 0.0544
313.15 K, m1 = 0.006403 | 0.0567
313.15 K, m1 = 0.006614 | 0.0584
313.15 K, m1 = 0.006889 | 0.0606
313.15 K, m1 = 0.007247 | 0.0637
313.15 K, m1 = 0.007657 | 0.0669
313.15 K, m1 = 0.008021 | 0.0699
313.15 K, m1 = 0.008353 | 0.0725
313.15 K, m1 = 0.0086 | 0.0744
313.15 K, m1 = 0.008852 | 0.0763
313.15 K, m1 = 0.009114 | 0.0783
313.15 K, m1 = 0.009356 | 0.0803
313.15 K, m1 = 0.009621 | 0.0823
313.15 K, m1 = 0.009883 | 0.0842
313.15 K, m1 = 0.01024 | 0.0869
313.15 K, m1 = 0.01049 | 0.0888
